Patent publication US20080280761A1 (priority 2005, published 2008)
Read-outs that look alike come from different tables or passages of the source.

How the values were obtained:
weeds = details: in vivo; cited from earlier work
[1] = system: thylakoid membrane, electron transfer reaction of two photosystems, especially photosystem II; assay type: biochemical
[2] = system: main weeds in the cropland; assay type: in vivo
Striga hermonthica = details: 10-4 mol/L; cited from earlier work

Structure (SMILES)	time to kill the weeds (weeds)	apparent quanta efficiency [1]	electron transfer reaction of two photosystems, especially photosystem II [1]	photosynthetic oxygen evolution rate [1]	time to distinct toxic symptom ([2]; sprayed on the stems and leaves, 5 to 800 μg/g)	time to obvious injuried symptom ([2]; stem or leaf treatment)	inhibitory effect on the seed germination (Striga hermonthica)	time to distinct toxic symptom ([2]; in vivo)	time to obvious injuried symptom ([2]; in vivo)
O=C(O)CNCP(=O)(O)O [glyphosate]	at least 10 days								
CC(=O)C1=C(O)C(CC(C)C)NC1=O (stereo not shown) [iso-tenuazonic acid]		obviously reduce	inhibiting	obviously reduce	five	12 h	around 50%		
CCC(C)C1NC(=O)C(C(C)=O)=C1O (stereo not shown) [tenuazonic acid]		obviously reduce	inhibiting	obviously reduce			around 50%	five	12 h
